Each structure is given as a SMILES string. The source made the active and inactive calls. The calls are words filed in the database; no cut-off is given here.

The target of experiment [1] is Serine/threonine-protein kinase PLK2 (Homo sapiens) (UniProt Q9NYY3). Description: Inhibition of Plk2 polo-box domain (unknown origin) assessed as inhibition of 5-carboxyfluorescein-Ahx-GPMQTS-pT-PKNG binding after 10 mins by fluorescence polarization assay. Background: In fluorescence polarisation assays a small probe gives low polarisation when free and higher when bound to something large.

Experiment [2] has as its target Serine/threonine-protein kinase PLK3 (Homo sapiens) (UniProt Q9H4B4). The experiment in a line: Inhibition of Plk3 polo-box domain (unknown origin) assessed as inhibition of 5-carboxyfluorescein-Ahx-GPLATS-pT-PKNG binding after 10 mins by fluorescence polarization assay.
For experiment [3], the target named is Serine/threonine-protein kinase PLK1 (Homo sapiens) (UniProt P53350). The experiment in a line: Inhibition of HA-EGFP tagged Plk1 polo-box domain (unknown origin) expressed in 293A cells assessed as inhibition of biotin-p-T78 binding up to 150 uM after 1 hr by ELISA. The class given is cell-based. For orientation: An ELISA detects its analyte on a solid surface through an enzyme-linked reagent.
Sequence of Serine/threonine-protein kinase PLK1 (Homo sapiens) (P53350 whole entry, the tested form may be a part): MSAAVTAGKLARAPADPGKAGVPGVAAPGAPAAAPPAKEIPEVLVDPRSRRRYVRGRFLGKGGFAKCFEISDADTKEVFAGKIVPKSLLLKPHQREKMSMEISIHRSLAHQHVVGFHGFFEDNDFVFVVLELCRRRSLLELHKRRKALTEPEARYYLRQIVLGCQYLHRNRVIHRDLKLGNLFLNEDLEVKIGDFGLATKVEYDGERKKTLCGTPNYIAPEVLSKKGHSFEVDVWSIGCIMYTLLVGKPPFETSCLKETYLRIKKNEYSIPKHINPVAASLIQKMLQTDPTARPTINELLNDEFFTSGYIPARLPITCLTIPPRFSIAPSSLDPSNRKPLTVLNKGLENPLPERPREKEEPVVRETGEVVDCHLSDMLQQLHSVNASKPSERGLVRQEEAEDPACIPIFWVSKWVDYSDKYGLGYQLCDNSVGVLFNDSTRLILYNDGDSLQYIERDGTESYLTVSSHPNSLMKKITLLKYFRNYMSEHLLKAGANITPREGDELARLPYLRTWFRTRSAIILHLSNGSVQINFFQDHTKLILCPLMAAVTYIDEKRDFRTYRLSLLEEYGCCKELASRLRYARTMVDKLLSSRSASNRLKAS

Sequence of Serine/threonine-protein kinase PLK2 (Homo sapiens) (Q9NYY3 whole entry, looked up, the tested form may be a part): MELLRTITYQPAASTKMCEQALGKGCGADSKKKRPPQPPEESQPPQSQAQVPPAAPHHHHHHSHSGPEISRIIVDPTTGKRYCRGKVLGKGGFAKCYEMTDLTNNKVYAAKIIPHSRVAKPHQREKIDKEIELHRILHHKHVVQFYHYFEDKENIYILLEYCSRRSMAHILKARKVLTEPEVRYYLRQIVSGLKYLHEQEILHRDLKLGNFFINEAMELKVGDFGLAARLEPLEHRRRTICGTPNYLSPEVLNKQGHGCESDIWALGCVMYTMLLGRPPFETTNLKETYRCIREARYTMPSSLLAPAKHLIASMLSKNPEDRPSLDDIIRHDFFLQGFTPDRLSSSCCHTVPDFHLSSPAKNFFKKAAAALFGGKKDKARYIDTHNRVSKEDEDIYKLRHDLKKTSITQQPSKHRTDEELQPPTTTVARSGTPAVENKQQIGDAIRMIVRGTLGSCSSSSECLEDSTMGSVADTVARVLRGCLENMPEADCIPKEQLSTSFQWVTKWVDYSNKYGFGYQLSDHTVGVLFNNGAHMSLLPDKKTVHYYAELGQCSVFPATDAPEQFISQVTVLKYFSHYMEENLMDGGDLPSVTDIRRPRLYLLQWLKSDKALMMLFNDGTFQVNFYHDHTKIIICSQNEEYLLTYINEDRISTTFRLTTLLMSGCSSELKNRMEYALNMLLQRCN
Sequence of Serine/threonine-protein kinase PLK3 (Homo sapiens) (Q9H4B4 whole entry, looked up, the tested form may be a part): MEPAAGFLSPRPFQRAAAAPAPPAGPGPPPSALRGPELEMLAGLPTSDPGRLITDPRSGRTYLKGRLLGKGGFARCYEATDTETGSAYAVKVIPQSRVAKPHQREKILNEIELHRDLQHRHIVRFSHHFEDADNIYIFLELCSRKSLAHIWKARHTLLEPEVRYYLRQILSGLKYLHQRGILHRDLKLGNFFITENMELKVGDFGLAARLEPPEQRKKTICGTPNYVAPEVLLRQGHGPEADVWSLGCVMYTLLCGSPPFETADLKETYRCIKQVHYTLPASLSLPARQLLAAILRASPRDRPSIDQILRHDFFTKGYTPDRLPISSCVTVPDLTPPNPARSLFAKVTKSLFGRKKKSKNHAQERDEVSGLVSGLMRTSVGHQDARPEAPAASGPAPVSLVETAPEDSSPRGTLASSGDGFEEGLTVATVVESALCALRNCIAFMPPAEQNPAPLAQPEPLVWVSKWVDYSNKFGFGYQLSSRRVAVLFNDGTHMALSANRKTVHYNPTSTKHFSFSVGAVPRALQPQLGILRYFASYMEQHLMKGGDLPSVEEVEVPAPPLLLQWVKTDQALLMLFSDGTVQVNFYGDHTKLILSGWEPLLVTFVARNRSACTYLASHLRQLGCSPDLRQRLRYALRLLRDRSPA

For `CC(=O)n1cc(CCNC(=O)CCCCCN2CC(=O)N[C@@H](CC(C)C)C(=O)N[C@@H](Cc3cncn3CCCCCCCCc3ccccc3)C(=O)N[C@@H](CO)C(=O)N[C@@H]([C@@H](C)OP(=O)(O)O)C(=O)N[C@@H](C(N)=O)CSCC2=O)c2ccccc21`, the inhibition result in experiment [1] and in experiment [2] was “inactive” throughout. Regarding `CC(=O)n1cc(CCNC(=O)CCCCCN2CC(=O)N[C@@H](CC(C)C)C(=O)N[C@@H](Cc3c[nH]cn3)C(=O)N[C@@H](CO)C(=O)N[C@@H]([C@@H](C)OP(=O)(O)O)C(=O)N[C@@H](C(N)=O)CSCC2=O)c2ccccc21`, the inhibition entry in experiment [1] and in experiment [2] was “inactive” in each case. Regarding `CC(=O)n1cc(CCNC(=O)CCCCN2CC(=O)N[C@@H](CC(C)C)C(=O)N[C@@H](Cc3c[nH]cn3)C(=O)N[C@@H](CO)C(=O)N[C@@H]([C@@H](C)OP(=O)(O)O)C(=O)N[C@@H](C(N)=O)CSCC2=O)c2ccccc21`, the inhibition result in experiment [3] was “Active”. Still for that read-out and setting: the same measure for `CC(=O)n1cc(CCNC(=O)CCN2CC(=O)N[C@@H](CC(C)C)C(=O)N[C@@H](Cc3c[nH]cn3)C(=O)N[C@@H](CO)C(=O)N[C@@H]([C@@H](C)OP(=O)(O)O)C(=O)N[C@@H](C(N)=O)CSCC2=O)c2ccccc21`: “Active”.

Values taken from ChEMBL document CHEMBL2380215, “Development of cyclic peptomer inhibitors targeting the polo-box domain of polo-like kinase 1” (Bioorg Med Chem, 2013).
